Reference: paper PMC6026870, “Selective induction of cancer cell death by VDAC1‐based peptides and their potential use in cancer therapy” (Molecular Oncology, 2018)

How the values were obtained:
[1] = system: A549, MDA‐MB‐231 and U‐87MG xenografts; test: TUNEL assay on xenograft tumor sections; assay type: in vivo, mouse; conditions: TUNEL staining of paraffin sections; no TUNEL‐positive cells in control HBSS‐TTs (Fig. 7A–C)
Experimental: U‐87MG cells (3 × 10^6/mouse), A549 cells (5 × 10^6/mouse), or MDA‐MB‐231 cells (3 × 10^6/mouse) were inoculated subcutaneously (s.c.) into the hind leg flanks of athymic 8‐week‐old male nude mice (Envigo, Huntingdon, UK). Tumor size was measured using a digital caliper and volume was calculated, and when reached 50–100 mm^3 for each tumor type, mice were randomly divided into two groups (five mice per group). […] The xenografts were injected (two points, 20 μL per tumor) every two days. Beginning on the day of inoculation, mouse weight and tumor volume were monitored twice a week. Experiments were terminated after 14, 29, or 20 days for U‐87MG‐, MDA‐MB‐231‐, or A549‐based tumors, respectively. The mice were sacrificed and tumors were excised. Half of each tumor was fixed in 4% buffered formaldehyde, paraffin‐embedded, and processed for IHC, while the second half was frozen in liquid nitrogen for immunoblotting and qPCR analyses. These experimental protocols were approved by the Institutional Animal Care and Use Committee of Ben‐Gurion University.
Paraffin‐embedded‐fixed tumor sections were processed for a TUNEL assay using the DeadEnd Fluorometric TUNEL system according to the manufacturer's instructions. […]

HeLa cells = test: Cellular ATP levels, luciferase‐based assay (CellTiter‐Glo); assay type: cell-based, human; conditions: 3 h, percentage of control, mean ± SE (n = 3) (Fig. 4F)
Experimental: Cellular ATP levels were estimated using a luciferase‐based assay (CellTiter‐Glo; Promega). […] ATP levels were assayed according to the manufacturer's protocol, and luminescence was recorded using an Infinite M1000 plate reader (Tecan, Männedorf, Switzerland).

A549 cells [2] = test: Apoptosis, acridine orange/ethidium bromide staining; assay type: cell-based, human; conditions: A549, 3 h; quantitation, mean ± SE (n = 3) (Fig. 5E)
Experimental: (§1) For PI and annexin V–FITC staining, A549 or MDA‐MB‐231 cells, untreated or treated with VDAC1‐based peptides, were collected (1500 g for 5 min), washed, and resuspended in 200 μL binding buffer (10 mM HEPES/NaOH (pH 7.4), 140 mM NaCl, and 2.5 mM CaCl2). Annexin V–FITC staining was performed according to the recommended protocol. Cells were then washed once with binding buffer and resuspended in 200 μL binding buffer, to which PI was added immediately before flow cytometric analysis. At least 10 000 events were collected, recorded on a dot plot, and analyzed by flow cytometer. Acridine orange/ethidium bromide staining was carried as described previously (Zaid et al., 2005), with cells visualized by fluorescence microscopy (Olympus LX2‐KSP, Tokyo, Japan), and images were captured with a CCD camera. About 200 cells were counted for each experiment.

A549 cells [3] = test: Apoptosis, annexin V–FITC/PI staining and flow cytometry; assay type: cell-based, human; conditions: A549, 3 h, serum‐free, 37 °C (Figs 5F,G; also MDA‐MB‐231, Fig. S2B,C)
Experimental: as §1

[4] = system: HeLa cells (HK‐I in cytosolic fraction); test: Mitochondria‐bound HK detachment, cell fractionation and immunoblotting; assay type: cell-based, human; conditions: peptide 3, 5, 10 μM, 3 h, digitonin […], immunoblot (Fig. 4E)
Experimental: Peptide‐induced HK detachment from mitochondria to the cytosol was also analyzed by immunoblotting. […] Samples were centrifuged at 12 000 g at 4 °C for 10 min, and the obtained supernatants (cytosolic fraction) and pellets (mitochondria) were analyzed by immunoblotting using anti‐HK‐I, anti‐VDAC1, and anti‐GAPDH antibodies, and then with secondary HRP‐conjugated antibodies.

SMILES: CC[C@H](C)[C@H](NC(=O)[C@H](Cc1ccc(O)cc1)NC(=O)[C@@H]1CCCN1C(=O)[C@H](CCCNC(=N)N)NC(=O)[C@H](Cc1c[nH]cn1)NC(=O)[C@@H](CO)NC(=O)[C@@H](Cc1c[nH]c2ccccc12)NC(=O)[C@H](NC(=O)[C@@H](Cc1c[nH]c2ccccc12)NC(=O)[C@@H](CCC(=O)O)NC(=O)[C@@H](CCCCN)NC(=O)[C@@H](CCCCN)NC(=O)[C@@H](CC(C)C)NC(=O)[C@@H](CCC(=O)O)NC(=O)[C@H](NC(=O)[C@@H](C)NC(=O)[C@H](NC(=O)[C@@H](CC(N)=O)NC(=O)[C@@H](CC(C)C)NC(=O)[C@@H](C)NC(=O)[C@@H](Cc1c[nH]c2ccccc12)NC(=O)[C@H](NC(=O)[C@@H](C)NC(=O)CNC(=O)[C@@H](CC(N)=O)NC(=O)[C@@H](CO)NC(=O)[C@@H](CC(N)=O)NC(=O)[C@@H](CCCCN)NC(=O)[C@@H](Cc1c[nH]c2ccccc12)NC(=O)[C@H](NC(=O)[C@@H](Cc1c[nH]c2ccccc12)NC(=O)[C@H](N)CCCCN)[C@H](C)O)[C@H](C)O)C(C)C)[C@H](C)O)[C@H](C)O)C(=O)N[C@@H](C)C(=O)N[C@@H](Cc1c[nH]cn1)C(=O)O [R‐Tf‐D‐LP4]
- TUNEL‐positive cells in treated tumors [1]: the majority of the cells were TUNEL‐positive
- decrease of cellular ATP levels (HeLa cells): about 40%
- apoptotic cell death (acridine orange/ethidium bromide) (A549 cells [2]): over 70%
- apoptotic cell death (annexin V–FITC and PI staining) (A549 cells [3]): over 90%
- increase in HK in the cytosolic fraction [4]: about twofold
